Reference: the Deep4Chem optical property database
Each block holds one molecule with its values, some of them ahead of it.

Assay: solvent given as SMILES

- absorption maximum (in CC#N): 394 nm
Compound: COc1ccc(-c2nc(/C(C#N)=C/c3ccc(Cl)cc3)sc2-c2ccc(OC)cc2)cc1

- absorption maximum (in ClC(Cl)Cl): 623 nm
Compound: F[B-]1(F)n2c(ccc2-c2nc3ccccc3s2)C(c2ccccc2)=C2C=CC(c3nc4ccccc4s3)=[N+]21

- absorption maximum (in ClC(Cl)Cl): 480 nm
Compound: COc1ccc(-c2oc3cccc4c5c(-c6ccc(OC)cc6)/c(=N/S(=O)(=O)C(F)(F)F)oc6cccc(c2c34)c65)cc1

- absorption maximum (in CO): 346 nm
Compound: c1ccc(N(c2ccccc2)c2ccc(-c3cncs3)cc2)cc1

- absorption maximum (in C1CCCCC1): 342 nm
- absorption maximum (in CC#N): 341 nm
- absorption maximum (in CO): 340 nm
- absorption maximum (in ClC(Cl)Cl): 344 nm
Compound: CC1(C)CC(NCc2ccc3ccc4cccc5ccc2c3c45)CC(C)(C)N1[O]

- absorption maximum (in ClC(Cl)Cl): 400 nm
Compound: Cc1cc(C2=Cc3cccc[n+]3[B-](F)(F)O2)ccc1N(C)C

- absorption maximum (in ClCCl): 713 nm
Compound: Fc1ccc(C2=[N+]3C(=Nc4c5ccccc5c(-c5ccc(F)cc5)n4[B-]3(F)F)c3ccccc32)cc1

Compound: CC1(C)c2ccccc2N(c2ccc3c(c2)c2ccccc2n2c4ccccc4nc32)c2ccccc21
- absorption maximum (in Cc1ccccc1): 376 nm

Compound: O=[N+]([O-])c1cccc(O)c1
- absorption maximum (in CO): 329 nm
- absorption maximum (in O): 328 nm

- absorption maximum (in CCCCCC): 392 nm
Compound: Cc1cc(C)c(B(c2c(C)cc(C)cc2C)c2cc3cccc4c(B(c5c(C)cc(C)cc5C)c5c(C)cc(C)cc5C)cc5cccc2c5c34)c(C)c1

- absorption maximum (in C1CCOC1): 426 nm
Compound: CCCCCOc1ccc2c(c1)c1ccc3cccc4c5cccc6oc(=O)c2c(c65)c1c34

- absorption maximum (in C1CCOC1): 409 nm
- absorption maximum (in CN(C)C=O): 409 nm
Compound: O=C(O)c1ccc2cc3cc(C(=O)O)ccc3cc2c1

- absorption maximum (in ClCCl): 400 nm
Compound: [O-][n+]1c(/C=C/c2ccc3ccccc3c2)nc(N2CCOCC2)c2c1CCCC2

- absorption maximum (in ClCCl): 520 nm
Compound: COc1ccc(C#Cc2c3ccccc3c(C#Cc3ccc(OC)cc3)c3cc4sc(C)cc4cc23)cc1

Compound: COc1ccc2oc(-c3cc4cc(OC)ccc4oc3=O)cc2c1
- absorption maximum (in CC#N): 382 nm
- absorption maximum (in CCOC(C)=O): 384 nm
- absorption maximum (in CS(C)=O): 389 nm
- absorption maximum (in Cc1ccccc1): 388 nm
- absorption maximum (in O): 347 nm

- absorption maximum (in ClCCl): 343 nm
Compound: ClP1(Cl)=N[P@](Cl)(Oc2ccc3ccc4cccc5ccc2c3c45)=N[P@@](Cl)(Oc2ccc3ccc4cccc5ccc2c3c45)=N1

- absorption maximum (in CCO): 644 nm
- absorption maximum (in CO): 641 nm
- absorption maximum (in CS(C)=O): 651 nm
- absorption maximum (in O): 638 nm
Compound: CN1/C(=C/C=C(/C=C/c2sc3ccccc3[n+]2C)c2cc(F)cc(F)c2)Sc2ccccc21

- absorption maximum (in O): 480 nm
Compound: CC[n+]1c(-c2ccccc2)c2cc(N)ccc2c2ccc(N)cc21

- absorption maximum (in CC1CCCCC1): 446 nm
Compound: CC(C)(C)c1cc2c3cc(C(C)(C)C)c(-c4cc5cc6c7cccc8cccc(c9cc(C(C)(C)C)cc(c5cc4C(C)(C)C)c96)c87)cc3cc3c4cccc5cccc(c(c1)c23)c54

- absorption maximum (in CC#N): 376 nm
Compound: CCOC(=O)c1c2c3c(cccc3c3cc4c(cc13)[Si](C)(C)O[Si]4(C)C)N(C)C2=O

- absorption maximum (in C1CCOC1): 340 nm
Compound: COc1ccc(-c2cc3ccccc3p2-c2ccccc2)cc1 (stereo not drawn)

- absorption maximum (in O): 332 nm
Compound: Nc1ccc2ccc(O)cc2c1

Compound: CCCC1=Cc2nc1ccc1[nH]c(cc1CCC)c1nc(c(OC(=O)CCCNC(=O)OC(C)(C)C)cc3[nH]c2cc3CCC)C(CCC)=C1
- absorption maximum (in Cc1ccccc1): 645 nm

- absorption maximum (in C1CCOC1): 365 nm
Compound: COc1ccc(-n2c(-c3ccc(-c4cncc5ccccc45)cc3)nc3c4ccccc4c4ccccc4c32)cc1

Compound: Cc1c(C)c(B(c2c(C)c(C)c(N3c4ccccc4Oc4ccccc43)c(C)c2C)c2c(C)c(C)c(N3c4ccccc4Oc4ccccc43)c(C)c2C)c(C)c(C)c1C#N
- absorption maximum (in c1ccc([Si](c2ccccc2)(c2ccc(-n3c4ccccc4c4ccccc43)cc2)c2ccc(-n3c4ccccc4c4ccccc43)cc2)cc1): 408 nm

- absorption maximum (in ClCCl): 363 nm
Compound: O=S1(=O)c2ccc(-c3ccc(N(c4ccccc4)c4ccccc4)cc3)cc2C2(c3ccccc3-c3ccccc32)c2cc(-c3ccc(N(c4ccccc4)c4ccccc4)cc3)ccc21

- absorption maximum (in ClCCl): 631 nm
Compound: F[B-]1(F)n2c(c3ccccc3c2-c2ccccc2)C(c2ccccc2)=C2c3ccccc3C(c3ccccc3)=[N+]21

- absorption maximum (in CCCCCC): 440 nm
- absorption maximum (in ClCCl): 439 nm
Compound: CC(C)[Si](C#Cc1ccc(C#C[Si](C(C)C)(C(C)C)C(C)C)c2nc3ccccc3nc12)(C(C)C)C(C)C

Compound: CN(C)c1ccc(C2=Nc3scc(-c4ccccc4)[n+]3[B-](F)(F)O2)cc1
- absorption maximum (in C1CCOC1): 406 nm
- absorption maximum (in CC#N): 406 nm
- absorption maximum (in Cc1ccccc1): 409 nm
- absorption maximum (in ClCCl): 411 nm

- absorption maximum (in C1CCCCC1): 333 nm
- absorption maximum (in CCO): 330 nm
Compound: Cc1cc(=O)oc2c1cc(Br)c1occ(C)c12

Compound: O=c1ccc2cc3c(cc2o1)OCC3
- absorption maximum (in CC(C)O): 333 nm
- absorption maximum (in CCO): 333 nm
- absorption maximum (in CCOCC): 330 nm
- absorption maximum (in CO): 333 nm
- absorption maximum (in O): 336 nm

- absorption maximum (in ClCCl): 354 nm
Compound: C[Si]1(C)c2ccc(-c3cccs3)cc2C=Cc2cc(-c3cccs3)ccc21

- absorption maximum (in CC#N): 368.93 nm
Compound: C[n+]1ccn(CCCCc2ccc3c(c2)c2ccccc2n3-c2cc(C#N)c(C#N)cc2-n2c3ccccc3c3cc(CCCCn4cc[n+](C)c4)ccc32)c1

Compound: c1ccc(N2c3ccc4ccccc4c3-c3c4ccccc4nc[n+]3[B-]2(c2ccccc2)c2ccccc2)cc1
- absorption maximum (in C1CCC2CCCCC2C1): 542 nm
- absorption maximum (in C1CCCCC1): 539 nm
- absorption maximum (in C1CCOC1): 535 nm
- absorption maximum (in CC#N): 527 nm
- absorption maximum (in CC(C)=O): 530 nm
- absorption maximum (in CCCCCC): 537 nm
- absorption maximum (in CCOC(C)=O): 532 nm
- absorption maximum (in CN(C)C=O): 532 nm
- absorption maximum (in Cc1ccccc1): 539 nm
- absorption maximum (in ClC(Cl)Cl): 541 nm

- absorption maximum (in ClCCl): 508 nm
Compound: CN(C)c1ccc(C#Cc2cc(C#Cc3ccc(N(C)C)cc3)c3ccc4c(C#Cc5ccc(N(C)C)cc5)cc(C#Cc5ccc(N(C)C)cc5)c5ccc2c3c54)cc1

Compound: CCCCCCc1ccsc1-c1ccc(-c2sc(C(=O)O)cc2CCCCCC)s1
- absorption maximum (in CC(C)=O): 361 nm
- absorption maximum (in CCCCCC): 357 nm
- absorption maximum (in CCO): 352 nm
- absorption maximum (in CO): 352 nm
- absorption maximum (in ClCCl): 364 nm
- absorption maximum (in O): 365 nm

- absorption maximum (in ClCCl): 542 nm
Compound: Cc1cccc2[n+]1[B-](c1ccccc1)(c1ccccc1)c1cccc3c4c5c(cccc5c-2c13)[B-](c1ccccc1)(c1ccccc1)[n+]1c(C)cccc1-4

- absorption maximum (in ClC(Cl)Cl): 342 nm
Compound: COc1cc(OC)c2cc(-c3ccccc3CC#N)c(=O)oc2c1

- absorption maximum (in CC#N): 546 nm
- absorption maximum (in ClCCl): 549 nm
Compound: CCN(CC)c1ccc(/N=N/c2nc3ccc([N+](=O)[O-])cc3s2)cc1

Compound: c1ccc(-c2nc(-c3ccccc3)nc(-c3ccc(-n4c5ccccc5c5ccccc54)cc3)n2)cc1
- absorption maximum (in Cc1ccccc1): 364 nm

- absorption maximum (in ClCCl): 388 nm
Compound: COc1ccc2oc(=N)c(C#N)cc2c1

- absorption maximum (in ClC(Cl)Cl): 432 nm
Compound: C(#Cc1ccccc1)C(C#Cc1ccccc1)=Cc1c2ccccc2c(C=C(C#Cc2ccccc2)C#Cc2ccccc2)c2ccccc12

- absorption maximum (in CC#N): 324 nm
Compound: C(=C\c1cc[n+](Cc2ccccc2)cc1)/c1cc[n+](Cc2ccccc2)cc1

- absorption maximum (in C1CCOC1): 816 nm
- absorption maximum (in ClCCl): 826 nm
Compound: CCCCCCCc1ccc(C2=[N+]3C(=C4c5cc(OCC(CC)CC)c(-c6ccc(CCCCCCC)o6)n5[B-](F)(F)[n+]5c4n(c4cc(C(C)(C)C)ccc45)[B-]3(F)F)C=C2OCC(CC)CC)o1

- absorption maximum (in CN(C)C=O): 525 nm
Compound: CCCCCCCCCCCCCCCCCCN1C(=O)c2ccc3c4ccc5c6c(ccc(c7ccc(c2c37)C1=O)c64)C(=O)N(CCCCCCCCCCCCCCCCCC)C5=O

- absorption maximum (in CC#N): 350 nm
Compound: N#Cc1nn(-c2cc(F)cc(F)c2)nc1N1CCCC1
